Values of other authors, collected in patent US11661349B2, “Method for making coffee husk reducing agent” (Imam Abdulrahman Bin Faisal University, priority 2019, dated 2023).
Values after ≈ are worked out from the molar mass of the structure shown.

Key:
Aspergillus niger = details: A. niger; from Elefanti et al. 2013
Aspergillus flavus = details: A. flavus; from Elefanti et al. 2013

MIC (Aspergillus niger): 100 µg/mL (≈ 327 µM)
MIC (Aspergillus flavus): 100 µg/mL (≈ 327 µM)
Structure (SMILES): OC(Cn1cncn1)(Cn1cncn1)c1ccc(F)cc1F [Flucanazole]
MFC (Minimum Fungicidal Concentration) (Aspergillus niger): 100 µg/mL (≈ 327 µM)
MFC (Minimum Fungicidal Concentration) (Aspergillus flavus): 100 µg/mL (≈ 327 µM)
